{
  "source": "paper PMC9851200",
  "about": "“Multiparameter phenotypic screening for endogenous TFEB and TFE3 translocation identifies novel chemical series modulating lysosome function” (Autophagy, 2022)",
  "key": {"TGFBR2": {"biological_target": "TGFBR2 (Homo sapiens, UniProt P37173)", "sequence (P37173 23-567)": "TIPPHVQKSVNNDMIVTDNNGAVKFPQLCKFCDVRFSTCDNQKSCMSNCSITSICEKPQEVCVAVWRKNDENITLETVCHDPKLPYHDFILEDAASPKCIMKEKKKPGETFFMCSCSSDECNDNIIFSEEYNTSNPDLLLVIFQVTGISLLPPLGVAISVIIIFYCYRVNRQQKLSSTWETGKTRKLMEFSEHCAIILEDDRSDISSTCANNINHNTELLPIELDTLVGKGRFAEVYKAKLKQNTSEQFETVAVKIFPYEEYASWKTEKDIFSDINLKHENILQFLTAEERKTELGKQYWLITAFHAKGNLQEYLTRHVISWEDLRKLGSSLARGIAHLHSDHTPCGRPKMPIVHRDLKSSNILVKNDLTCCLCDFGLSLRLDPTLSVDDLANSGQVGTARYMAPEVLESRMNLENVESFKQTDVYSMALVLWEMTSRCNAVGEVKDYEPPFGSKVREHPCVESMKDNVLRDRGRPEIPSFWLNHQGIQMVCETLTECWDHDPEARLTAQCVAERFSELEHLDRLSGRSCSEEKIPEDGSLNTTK", "assay": "KINOMEscan TGFBR2", "assay_type": "binding", "details": "NEW KINOMEscan"}, "PRKD2": {"biological_target": "T1, PRKD2 (Homo sapiens, UniProt Q9BZL6)", "T1 sequence (Q9BZL6 1-878)": "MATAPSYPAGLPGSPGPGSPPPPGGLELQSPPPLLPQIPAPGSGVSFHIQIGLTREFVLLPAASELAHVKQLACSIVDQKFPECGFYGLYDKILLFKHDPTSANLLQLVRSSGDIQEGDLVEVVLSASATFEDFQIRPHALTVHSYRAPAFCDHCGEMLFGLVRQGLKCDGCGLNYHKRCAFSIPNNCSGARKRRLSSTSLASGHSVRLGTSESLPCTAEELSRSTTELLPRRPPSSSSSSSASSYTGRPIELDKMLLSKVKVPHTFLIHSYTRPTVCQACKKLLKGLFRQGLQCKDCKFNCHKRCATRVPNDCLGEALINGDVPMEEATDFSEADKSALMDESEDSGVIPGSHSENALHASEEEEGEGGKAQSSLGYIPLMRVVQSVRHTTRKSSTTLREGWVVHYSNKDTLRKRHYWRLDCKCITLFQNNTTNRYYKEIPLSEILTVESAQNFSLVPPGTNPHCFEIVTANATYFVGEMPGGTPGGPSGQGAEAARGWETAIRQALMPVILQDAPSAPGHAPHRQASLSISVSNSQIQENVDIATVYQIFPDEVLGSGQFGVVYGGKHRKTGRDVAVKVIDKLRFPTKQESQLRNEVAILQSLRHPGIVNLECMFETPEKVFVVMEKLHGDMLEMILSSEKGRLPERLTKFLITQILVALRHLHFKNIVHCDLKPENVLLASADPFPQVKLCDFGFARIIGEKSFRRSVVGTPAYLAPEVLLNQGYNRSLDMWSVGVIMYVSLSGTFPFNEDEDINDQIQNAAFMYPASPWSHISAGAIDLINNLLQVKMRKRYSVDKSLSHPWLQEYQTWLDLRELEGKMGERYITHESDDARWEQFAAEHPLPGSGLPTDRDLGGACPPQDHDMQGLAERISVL", "assay": "KINOMEscan PRKD2", "assay_type": "binding", "details": "NEW KINOMEscan"}, "PRKD1": {"biological_target": "T2, PRKD1 (Homo sapiens, UniProt Q15139)", "T2 sequence (Q15139 1-912)": "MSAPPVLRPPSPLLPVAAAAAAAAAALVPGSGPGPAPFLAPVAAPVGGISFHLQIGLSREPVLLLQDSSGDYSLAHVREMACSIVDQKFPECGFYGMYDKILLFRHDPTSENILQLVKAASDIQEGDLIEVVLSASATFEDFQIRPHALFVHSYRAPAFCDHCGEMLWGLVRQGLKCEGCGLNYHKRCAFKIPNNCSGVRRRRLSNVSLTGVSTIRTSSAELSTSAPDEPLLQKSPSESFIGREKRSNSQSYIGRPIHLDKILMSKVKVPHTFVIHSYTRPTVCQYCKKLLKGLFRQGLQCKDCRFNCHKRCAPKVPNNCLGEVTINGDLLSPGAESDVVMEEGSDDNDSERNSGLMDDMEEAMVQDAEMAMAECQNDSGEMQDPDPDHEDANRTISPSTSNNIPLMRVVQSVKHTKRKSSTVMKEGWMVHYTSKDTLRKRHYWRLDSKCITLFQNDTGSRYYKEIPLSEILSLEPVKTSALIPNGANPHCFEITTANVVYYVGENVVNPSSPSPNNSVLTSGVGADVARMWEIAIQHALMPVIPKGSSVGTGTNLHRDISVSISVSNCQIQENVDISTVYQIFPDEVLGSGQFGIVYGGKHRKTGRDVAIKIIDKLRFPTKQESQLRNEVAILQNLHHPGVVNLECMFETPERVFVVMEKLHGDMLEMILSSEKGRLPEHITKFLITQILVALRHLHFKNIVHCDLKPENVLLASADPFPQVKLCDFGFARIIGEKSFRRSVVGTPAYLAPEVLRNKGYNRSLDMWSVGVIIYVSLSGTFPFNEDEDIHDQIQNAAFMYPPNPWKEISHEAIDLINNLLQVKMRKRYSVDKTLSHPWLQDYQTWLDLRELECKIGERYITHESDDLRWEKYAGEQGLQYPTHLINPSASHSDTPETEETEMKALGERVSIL", "assay": "KINOMEscan PRKD1", "assay_type": "binding", "details": "NEW KINOMEscan"}, "CIT": {"biological_target": "CIT (Homo sapiens, UniProt O14578)", "sequence (O14578 whole entry)": "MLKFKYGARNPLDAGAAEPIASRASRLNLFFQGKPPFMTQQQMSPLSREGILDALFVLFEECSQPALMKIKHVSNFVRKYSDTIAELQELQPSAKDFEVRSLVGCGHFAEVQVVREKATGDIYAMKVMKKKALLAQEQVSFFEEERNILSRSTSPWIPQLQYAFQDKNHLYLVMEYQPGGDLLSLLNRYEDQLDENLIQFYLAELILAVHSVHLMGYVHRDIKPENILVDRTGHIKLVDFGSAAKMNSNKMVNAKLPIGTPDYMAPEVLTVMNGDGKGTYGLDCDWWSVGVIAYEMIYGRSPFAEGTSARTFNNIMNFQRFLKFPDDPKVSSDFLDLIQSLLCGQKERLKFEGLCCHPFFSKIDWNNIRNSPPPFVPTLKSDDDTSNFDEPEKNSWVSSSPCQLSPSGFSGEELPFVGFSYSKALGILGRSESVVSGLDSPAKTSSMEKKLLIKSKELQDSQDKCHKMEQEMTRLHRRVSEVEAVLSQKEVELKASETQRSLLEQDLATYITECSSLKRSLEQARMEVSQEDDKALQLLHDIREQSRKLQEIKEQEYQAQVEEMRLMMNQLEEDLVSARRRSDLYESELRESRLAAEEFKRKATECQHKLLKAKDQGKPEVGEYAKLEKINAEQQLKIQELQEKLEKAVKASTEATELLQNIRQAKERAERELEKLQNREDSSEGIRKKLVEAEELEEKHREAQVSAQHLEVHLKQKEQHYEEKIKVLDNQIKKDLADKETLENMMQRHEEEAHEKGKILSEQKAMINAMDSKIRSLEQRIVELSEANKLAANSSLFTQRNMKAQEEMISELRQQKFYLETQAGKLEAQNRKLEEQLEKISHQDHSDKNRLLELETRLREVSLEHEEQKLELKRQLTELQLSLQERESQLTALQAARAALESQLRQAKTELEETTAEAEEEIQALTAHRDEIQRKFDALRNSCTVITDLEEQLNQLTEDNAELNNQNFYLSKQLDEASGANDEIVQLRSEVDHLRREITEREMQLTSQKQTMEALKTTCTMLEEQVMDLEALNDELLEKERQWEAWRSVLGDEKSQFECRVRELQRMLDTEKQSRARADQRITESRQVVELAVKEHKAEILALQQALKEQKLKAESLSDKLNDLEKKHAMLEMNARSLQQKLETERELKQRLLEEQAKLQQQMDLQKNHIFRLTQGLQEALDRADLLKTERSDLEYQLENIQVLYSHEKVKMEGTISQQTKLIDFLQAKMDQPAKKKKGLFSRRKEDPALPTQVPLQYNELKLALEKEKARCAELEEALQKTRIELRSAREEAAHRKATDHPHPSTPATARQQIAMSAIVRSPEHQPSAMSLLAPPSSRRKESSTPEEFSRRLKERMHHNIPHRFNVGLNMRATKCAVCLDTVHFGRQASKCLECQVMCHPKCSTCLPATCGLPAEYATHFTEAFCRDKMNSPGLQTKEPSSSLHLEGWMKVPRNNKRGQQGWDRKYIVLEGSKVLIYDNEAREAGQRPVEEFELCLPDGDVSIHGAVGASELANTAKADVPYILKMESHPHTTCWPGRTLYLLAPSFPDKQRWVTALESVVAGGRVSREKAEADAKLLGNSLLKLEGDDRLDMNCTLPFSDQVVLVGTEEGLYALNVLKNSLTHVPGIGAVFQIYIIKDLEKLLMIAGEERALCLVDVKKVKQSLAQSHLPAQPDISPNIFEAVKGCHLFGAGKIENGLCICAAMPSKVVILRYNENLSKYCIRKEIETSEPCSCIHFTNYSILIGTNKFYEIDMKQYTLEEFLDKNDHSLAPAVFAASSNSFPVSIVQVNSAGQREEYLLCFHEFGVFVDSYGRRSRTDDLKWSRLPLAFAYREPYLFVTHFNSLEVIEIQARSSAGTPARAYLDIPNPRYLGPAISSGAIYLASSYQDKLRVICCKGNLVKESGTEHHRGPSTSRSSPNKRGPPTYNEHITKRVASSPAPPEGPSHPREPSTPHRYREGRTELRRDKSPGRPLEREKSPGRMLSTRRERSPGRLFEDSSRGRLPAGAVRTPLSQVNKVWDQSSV", "assay": "KINOMEscan CIT", "assay_type": "binding", "details": "NEW KINOMEscan"}, "CDC42BPB/MRCKB": {"biological_target": "CDC42BPB/MRCKB (Homo sapiens, UniProt Q9Y5S2)", "assay_type": "binding"}, "CSNK1D": {"biological_target": "CSNK1D (Homo sapiens, UniProt P48730)", "sequence (P48730 whole entry)": "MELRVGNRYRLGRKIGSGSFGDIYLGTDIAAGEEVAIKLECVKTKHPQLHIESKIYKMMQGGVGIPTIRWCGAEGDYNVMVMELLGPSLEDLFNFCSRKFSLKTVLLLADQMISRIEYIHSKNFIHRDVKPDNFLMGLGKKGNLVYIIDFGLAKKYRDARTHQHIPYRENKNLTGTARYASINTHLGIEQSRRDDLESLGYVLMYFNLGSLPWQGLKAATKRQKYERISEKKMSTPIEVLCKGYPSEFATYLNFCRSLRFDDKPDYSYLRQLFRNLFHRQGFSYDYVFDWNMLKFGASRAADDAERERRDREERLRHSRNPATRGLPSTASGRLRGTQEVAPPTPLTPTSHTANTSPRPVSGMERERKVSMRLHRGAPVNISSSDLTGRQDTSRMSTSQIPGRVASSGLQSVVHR", "assay": "KINOMEscan CSNK1D", "assay_type": "binding", "details": "NEW KINOMEscan"}, "[1]": {"biological_target": "kinases (KINOMEscan panel) (Homo sapiens, UniProt P42336, E545A)", "sequence (P42336 whole entry E545A)": "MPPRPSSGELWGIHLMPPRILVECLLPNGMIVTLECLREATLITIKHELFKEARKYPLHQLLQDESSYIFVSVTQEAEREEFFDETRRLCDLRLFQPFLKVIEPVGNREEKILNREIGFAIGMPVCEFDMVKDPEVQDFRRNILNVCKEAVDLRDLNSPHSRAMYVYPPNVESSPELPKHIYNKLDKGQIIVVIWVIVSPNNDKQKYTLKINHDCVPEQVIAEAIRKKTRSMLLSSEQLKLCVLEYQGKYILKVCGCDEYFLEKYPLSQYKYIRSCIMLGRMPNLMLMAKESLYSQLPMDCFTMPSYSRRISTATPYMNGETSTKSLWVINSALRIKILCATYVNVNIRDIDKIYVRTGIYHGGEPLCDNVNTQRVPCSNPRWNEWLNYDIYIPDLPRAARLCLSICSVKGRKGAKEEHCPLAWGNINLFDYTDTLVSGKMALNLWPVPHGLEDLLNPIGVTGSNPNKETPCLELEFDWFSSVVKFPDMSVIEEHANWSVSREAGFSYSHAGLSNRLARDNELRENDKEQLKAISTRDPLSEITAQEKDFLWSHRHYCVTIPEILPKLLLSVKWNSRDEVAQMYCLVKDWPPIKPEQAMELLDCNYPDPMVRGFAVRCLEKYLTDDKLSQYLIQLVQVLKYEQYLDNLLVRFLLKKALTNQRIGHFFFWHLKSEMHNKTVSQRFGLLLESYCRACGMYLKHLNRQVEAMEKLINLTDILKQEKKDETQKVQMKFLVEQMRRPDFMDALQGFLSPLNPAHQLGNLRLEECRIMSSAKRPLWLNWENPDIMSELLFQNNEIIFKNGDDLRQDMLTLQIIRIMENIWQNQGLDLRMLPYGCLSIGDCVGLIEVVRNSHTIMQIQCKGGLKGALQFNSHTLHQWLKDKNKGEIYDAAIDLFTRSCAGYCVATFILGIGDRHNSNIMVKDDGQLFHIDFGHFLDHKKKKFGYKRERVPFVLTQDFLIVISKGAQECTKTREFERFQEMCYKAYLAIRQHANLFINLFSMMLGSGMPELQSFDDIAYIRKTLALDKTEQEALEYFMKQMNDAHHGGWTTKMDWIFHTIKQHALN", "assay_type": "binding", "details": "NEW KINOMEscan"}, "JAK1(JH2)": {"biological_target": "T3, JAK1(JH2) (Homo sapiens, UniProt P23458)", "T3 construct": "JAK1(JH2)", "T3 sequence (P23458 583-855 limits assumed)": "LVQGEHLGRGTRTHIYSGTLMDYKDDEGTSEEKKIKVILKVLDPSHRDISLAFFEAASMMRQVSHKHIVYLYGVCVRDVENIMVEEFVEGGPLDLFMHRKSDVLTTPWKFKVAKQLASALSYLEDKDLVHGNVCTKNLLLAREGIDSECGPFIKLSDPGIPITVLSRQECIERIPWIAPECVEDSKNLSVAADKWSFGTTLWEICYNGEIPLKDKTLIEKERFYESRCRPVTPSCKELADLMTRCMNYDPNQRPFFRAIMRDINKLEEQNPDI", "assay": "KINOMEscan JAK1(JH2)", "assay_type": "binding", "details": "NEW KINOMEscan"}, "CDC42BPG/DMPK2": {"biological_target": "CDC42BPG/DMPK2 (Homo sapiens, UniProt Q6DT37)", "assay_type": "binding"}, "TGFBR1": {"biological_target": "T4, TGFBR1 (Homo sapiens, UniProt P36897)", "T4 sequence (P36897 34-503)": "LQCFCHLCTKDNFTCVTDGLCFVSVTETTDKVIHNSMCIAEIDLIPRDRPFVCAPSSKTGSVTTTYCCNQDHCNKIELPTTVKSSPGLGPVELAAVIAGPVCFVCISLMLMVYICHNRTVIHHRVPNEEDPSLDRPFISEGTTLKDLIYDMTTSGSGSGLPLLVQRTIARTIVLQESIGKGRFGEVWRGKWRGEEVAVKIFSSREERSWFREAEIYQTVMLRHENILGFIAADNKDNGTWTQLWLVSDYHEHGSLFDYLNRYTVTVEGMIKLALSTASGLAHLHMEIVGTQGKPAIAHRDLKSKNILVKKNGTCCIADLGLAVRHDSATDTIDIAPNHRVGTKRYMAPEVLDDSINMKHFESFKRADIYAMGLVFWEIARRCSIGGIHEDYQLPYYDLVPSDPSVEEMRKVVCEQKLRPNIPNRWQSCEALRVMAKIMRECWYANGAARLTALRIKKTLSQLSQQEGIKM", "assay": "TGFBR1 binding KD (Table S3)", "description": "Supplement KAUP_A_2095834_SM5251.zip/Supplementary Tables R7.xlsx, sheet \"Table S3 - Analogues\""}},
  "data": [
    {"smiles": "Cc1cccc(-c2nc(Nc3ccc4nn(C)cc4c3)c3ccccc3n2)n1", "note": "[NK167]", "values": [
      {"measurement": "KINOMEscan TGFBR2", "setting": "TGFBR2", "result": 0},
      {"measurement": "KINOMEscan PRKD2", "setting": "PRKD2", "result": 39},
      {"measurement": "KINOMEscan PRKD1", "setting": "PRKD1", "result": 0},
      {"measurement": "KINOMEscan CIT", "setting": "CIT", "result": 3},
      {"measurement": "KINOMEscan CDC42BPB/MRCKB", "setting": "CDC42BPB/MRCKB", "result": 0},
      {"measurement": "KINOMEscan CSNK1D", "setting": "CSNK1D", "result": 4},
      {"measurement": "KINOMEscan PIK3CA(E545A)", "setting": "[1]", "result": 31},
      {"measurement": "KINOMEscan JAK1(JH2domain-pseudokinase)", "setting": "JAK1(JH2)", "result": 36},
      {"measurement": "KINOMEscan CDC42BPG/DMPK2", "setting": "CDC42BPG/DMPK2", "result": 0}
    ]},
    {"smiles": "Cc1cccc(-c2nc(N(C)c3ccc4ncsc4c3)c3ccccc3n2)n1", "note": "[NK-161]", "values": [
      {"measurement": "KINOMEscan TGFBR2", "setting": "TGFBR2", "result": 0},
      {"measurement": "KINOMEscan PRKD2", "setting": "PRKD2", "result": 63},
      {"measurement": "KINOMEscan PRKD1", "setting": "PRKD1", "result": 46},
      {"measurement": "KINOMEscan CIT", "setting": "CIT", "result": 0},
      {"measurement": "KINOMEscan CDC42BPB/MRCKB", "setting": "CDC42BPB/MRCKB", "result": 5},
      {"measurement": "KINOMEscan CSNK1D", "setting": "CSNK1D", "result": 11},
      {"measurement": "KINOMEscan PIK3CA(E545A)", "setting": "[1]", "result": 14},
      {"measurement": "KINOMEscan JAK1(JH2domain-pseudokinase)", "setting": "JAK1(JH2)", "result": 41},
      {"measurement": "KINOMEscan CDC42BPG/DMPK2", "setting": "CDC42BPG/DMPK2", "result": 21}
    ]},
    {"smiles": "Cc1cccc(-c2nc(Nc3ccc4ncsc4c3)c3ccccc3n2)n1", "note": "[NK140]", "values": [
      {"measurement": "Kd", "setting": "TGFBR1", "result": 5, "unit": "µM"}
    ]},
    {"smiles": "Cc1cccc(-c2nc(Nc3ccncc3)c3ccccc3n2)n1", "note": "[NK215]", "values": [
      {"measurement": "Kd", "setting": "TGFBR1", "result": 0.0095, "unit": "µM"}
    ]}
  ]
}
